# Assay results taken from paper PMC4894409 (Scientific Reports, 2015).
# Structures can show the parent of a compound that is named as a salt. Where two headings read alike, the source gives them in different places.
# Key:
# [1] = test system: mice; assay: FS test after AMPT, PCPA, PRAZ or WAY pretreatment (mechanism of antidepressant-like effect of D1); assay type: in vivo, Male Swiss mice; settings: AMPT 100, PCPA 100, PRAZ 1 or WAY 0.3 mg/kg i.p. + Vehicle versus SAL + Vehicle, p > 0.05
# Description: Mice were pretreated (i.p) with saline solution or AMPT 100 mg/kg (catecholamine depletor) 4 h prior to the oral administration of vehicle 10 mL/kg or D1 5 mg/kg. […] In a separate experiment, pretreatment (i.p) of mice with saline solution or PCPA 100 mg/kg (serotonin depletor) for four consecutive days prior to oral administration of vehicle or D1 5 mg/kg was used to investigate effect of serotonin depletion on antidepressant-like activity of this OAD. […] In all the four experiments, oral administration of vehicle or D1 5 mg/kg was followed by FS test (60 min interval between p.o. treatment and behavioural testing).
# [2] = test system: dopamine, noradrenaline and serotonin levels; settings: cited from earlier work
# [3] = biological target: T1, 5-HT1A receptor (Mus musculus, UniProt Q64264); assay: [35S]GTPγS binding to mice hippocampal membranes; assay type: biochemical; settings: for Emax: read-out: Intrinsic activity (Emax ± SEM in %)
# T1 construct: The hippocampi of mice were dissected and homogenized in 5 volumes of ice-cold buffer; from tissue; host or cells: mouse hippocampus membranes
# T1 sequence (Q64264 1-421): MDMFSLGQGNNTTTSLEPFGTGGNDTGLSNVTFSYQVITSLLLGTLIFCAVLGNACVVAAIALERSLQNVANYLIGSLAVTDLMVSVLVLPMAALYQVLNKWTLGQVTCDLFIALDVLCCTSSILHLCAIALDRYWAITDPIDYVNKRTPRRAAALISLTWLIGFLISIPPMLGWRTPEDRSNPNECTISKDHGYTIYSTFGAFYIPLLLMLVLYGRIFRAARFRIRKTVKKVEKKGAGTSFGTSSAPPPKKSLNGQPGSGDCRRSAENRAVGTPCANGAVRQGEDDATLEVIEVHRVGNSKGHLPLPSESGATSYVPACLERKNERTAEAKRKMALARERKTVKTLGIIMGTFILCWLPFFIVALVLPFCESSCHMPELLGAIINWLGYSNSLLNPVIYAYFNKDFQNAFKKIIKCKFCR
# Description: The hippocampi of mice were dissected and homogenized in 5 volumes of ice-cold buffer (25 mM Tris-HCl, 0.5 mM dithiothreitol, and 0.5 mM EGTA, pH 7.4). The homogenate was centrifuged (1,000 × g for 5 min at 4 °C) and the resultant supernatant was removed. The remaining pellet was resuspended in buffer, homogenized, and centrifuged. The two supernatants obtained were combined and centrifuged at […] at 4 °C and the pellets were resuspended in membrane preparation buffer. The volumes were adjusted prior to the determination of protein concentration by Bradford method[56] and stored at −80 °C until required. […] The reactions were initiated by the addition of 25 μl [^35S]-GTPγS, followed by a 20 min incubation at 20 °C. The reactions were terminated by rapid filtration. The filters were placed in liquid scintillation cocktail in counting vials. The liquid scintillation spectroscopy was used to measure the radioactivity bound to the filter paper after 10 hour.
# [4] = test system: mice; assay: Forced swimming (FS) test; assay type: in vivo, Male Swiss mice
# Description: (§1) Male Swiss mice (weighing between 25–30 g; 6–8 weeks old), provided by Central Animal House of the Federal University of Goiás, were used in all behavioural models. The experimental animals were kept in an intra-laboratory facility cage (32 × 18 × 16 cm) under controlled environmental conditions (23 ± 1 °C, 12 hr light-dark cycle) with access to food and water ad libitum. The experimental protocols (number 104/08) were approved by Ethical Committee of Federal University of Goiás in accordance to the international laws on the care and use of laboratory animals.
# In the FS model, mice were randomly divided into 5 groups [control (vehicle), 3 different doses of OAD and IMI]. Mice were exposed to a modified version of FS test[48] after oral administration of vehicle, OAD (5, 10 or 20 mg/kg) or IMI 15 mg/kg. FS apparatus is a cylindrical water container (42 cm in height, 18 cm in diameter) filled with water up to 30 cm (total volume ( [drawing 1] of 7635.06 cm^3 at 24 ± 2 °C). In this model, the initial escape-directed behaviour like swimming and climbing by mouse are generally followed with a relatively passive and immobile posture. The container was cleaned with 10% ethanol solution prior to the exposure of naïve mouse. This test session (6-min duration) was videotaped and the swimming and immobility time was later scored and analyzed.
# [5] = test system: mice; assay: Open field (OF) test; assay type: in vivo, Male Swiss mice; settings: for other parameters of the OF test: 5, 10, 20 mg/kg p.o., parameters not named as changed, p > 0.05
# Description: as §1
# In the OF, animals were randomly divided into six groups [control (vehicle), 3 different doses of OAD, DZP 1 or 5 mg/kg]. Animals were treated with vehicle, OAD (5, 10 or 20 mg/kg, p.o), DZP (1 or 5 mg/kg, p.o) as described in our previous work[7][49], and placed in a circular open field [base area ( [drawing 2] ) = 62.80 cm^2 which is divided into 8 equal sectors enclosed in a 50 cm high wooden wall]. The test session (5-min duration) was videotaped in a sound-proof experimental room. Parameters like total crossing, freezing time, number of grooming and rearing activity, crossing at the centre and time spent at the centre of the open field were observed and scored.
# [6] = previous study; cited from earlier work
# [7] = 100 mg/kg i.p. for four consecutive days
# [8] = 20 mg/kg p.o., vs vehicle, p < 0.05
compound,measurement,setting,value
"N[C@@H](Cc1ccc(Cl)cc1)C(=O)O (racemic) [PCPA, p-chlorophenylalanine]",animal behaviour (swimming time) after pretreatment prior to vehicle,[1],did not alter animal behaviour
same,depletion of endogenous serotonin content,[2]; [7],about 60%
same,noradrenaline or dopamine levels,[2]; [7],without altering
"CCCN(CCC)C1CCc2cccc(O)c2C1 (single isomer, unassigned; (+)) [(+) 8-OH-DPAT, 8-OH-DPAT]",EC50,[3],158 nM
same,Emax,[3],94 ± 2%
"CC(N)(Cc1ccc(O)cc1)C(=O)O (stereo not drawn) [AMPT, α-methyl-p-tyrosine]",animal behaviour (swimming time) after pretreatment prior to vehicle,[1],did not alter animal behaviour
same,levels of serotonin,[2]; mice,without affecting
same,reduction of noradrenaline levels,[2]; mice,53%
same,reduction of dopamine levels,"[2]; mice, tyrosine hydroxylase inhibitor",57%
"O=C1CC2(CCCC2)CC(=O)N1CCCCN1CCN(c2ncccn2)CC1 [Buspirone, buspirone]",EC50,"[3]; mice hippocampal membranes, read-out: Agonist potency (pEC50 ± SEM) (converted)",251 nM
same,Emax,[3]; percentage of that produced by 10 μM (+)8-OH-DPAT,33 ± 1%
"C=C(C)C(=O)O[C@H]1CC[C@]2(C)[C@H]3CC=C4[C@@H]5CC(C)(C)CC[C@]5(C(=O)O)CC[C@@]4(C)[C@]3(C)CC[C@H]2C1(C)C [D2, Oleanolic acid methacrylate]",immobility time in the FS test,[4]; [8],reduction
same,swimming time in the FS test,[4]; [8],significant increase
same,total crossing in the OF,"[5]; 20 mg/kg p.o., vs vehicle",increase
same,other parameters of the OF test,[5],not altered
same,time spent at the centre of the OF,"[5]; 5, 10 and 20 mg/kg p.o., vs vehicle",increase
same,crossing at the centre of the OF,"[5]; 10 and 20 mg/kg p.o., vs vehicle",increase
"COC(=O)/C=C/C(=O)O[C@H]1CC[C@]2(C)[C@H]3CC=C4[C@@H]5CC(C)(C)CC[C@]5(C(=O)O)CC[C@@]4(C)[C@]3(C)CC[C@H]2C1(C)C [D3, Oleanolic acid methyl fumarate]",immobility time in the FS test,"[4]; 5, 10, 20 mg/kg p.o., ANOVA",did not elicit significant effect
same,swimming time in the FS test,"[4]; 5, 10, 20 mg/kg p.o., ANOVA",did not elicit significant effect
same,number of grooming in the OF,"[5]; 10 mg/kg p.o., vs vehicle",reduction
same,freezing time in the OF,"[5]; 20 mg/kg p.o., vs vehicle",increase
same,time spent at the centre of the OF,"[5]; 20 mg/kg p.o., vs vehicle",increase
same,other parameters of the OF test,[5],not altered
"CN1C(=O)CN=C(c2ccccc2)c2cc(Cl)ccc21 [DZP, Diazepam, reference compound]",effect in the OF test,[5]; 1 mg/kg p.o.,anxiolytic
same,effect in the OF test,[5]; 5 mg/kg p.o.,sedative like effect
"CN(C)CCCN1c2ccccc2CCc2ccccc21 [IMI, imipramine, reference compound]",effect in FS test,[4]; 15 mg/kg p.o.,antidepressant-like effect
"CC1(C)CC[C@]2(C(=O)O)CC[C@]3(C)C(=CC[C@@H]4[C@@]5(C)CC[C@H](O)C(C)(C)[C@@H]5CC[C@]43C)[C@@H]2C1 [OA, Oleanolic acid]",dependence of antidepressant-like effect on MAO activity,[6],independent of MAO activity
same,"effect of PCPA, AMPT, NAN, PRAZ and WAY100635 on antidepressant-like effect",[6],blockade
"COc1cc2nc(N3CCN(C(=O)c4ccco4)CC3)nc(N)c2cc1OC [PRAZ, prazosin, reference compound]",animal behaviour (swimming time) after pretreatment prior to vehicle,[1],did not alter animal behaviour
"COc1ccccc1N1CCN(CCN(C(=O)C2CCCCC2)c2ccccn2)CC1 [WAY, N-{2-[4-(2-methoxyphenyl)-1-piperazinyl]ethyl}-N-2-pyridinylcyclohexane carboxamide, reference compound]",animal behaviour (swimming time) after pretreatment prior to vehicle,[1],did not alter animal behaviour
Oleanolic acid ethyl fumarate [D4],swimming time in the FS test,[4]; [8],significant reduction
same,immobility time in the FS test,"[4]; 5, 10, 20 mg/kg p.o., ANOVA",without changes
same,freezing time in the OF,"[5]; 20 mg/kg p.o., vs vehicle",increase
same,total crossing in the OF,"[5]; 20 mg/kg p.o., vs vehicle",reduction
